The text below walks through data of US11369583B2, “Long-acting prodrugs of rasagiline, preparing methods and uses thereof” (GUANGZHOU HENOVCOM BIOSCIENCE CO. LTD, priority 2017, dated 2022).

Data set [1] can be described thus: Solubility of prodrug compounds of Rasagiline in phosphate buffer pH 7.4. The format is physicochemical. An excerpt:
A melting point and solubility (phosphate buffer with pH of 7.4) of synthesized prodrug compounds of Rasagiline were detected, and the results are shown in table 1: […]

Data set [2] can be described thus: Pharmacokinetics experiment: Rasagiline in blood plasma after intramuscular injection of prodrug suspensions into beagles. In kind it is in vivo. The following applies: beagle, intramuscular injectable suspension. As to the method: One common male beagle was used for each group, and they were forbidden to eat for 12 hours before administering drugs, and drank water freely meanwhile. Injectable suspensions of Example 13, Example 15, Example 14, Example 20, Example 8 were intramuscularly injected in a dosage of 0.47 mg/kg Rasagiline (1.72 mg/kg, 1.56 mg/kg, 1.64 mg/kg, 1.80 mg/kg, 1.16 mg/kg of prodrug respectively after conversion).
Treatment of blood plasma sample: The blood plasma sample was placed in an ice bath; 30 μL of methanol and 20 μL of interior label (2 μg/mL apigenin dissolved in 50% methanol) were added into 200 μL of the blood plasma sample and mixed through vortex, and then 4 mL of ethyl acetate was added and mixed through vortex. After being centrifuged at 9000 g for 2 minutes, an organic phase was separated and dried in vacuum, and then 150 μL of methanol was added for re-dissolution. 30 μL of a prepared sample was taken for analyzing.
Data analysis: The sample was detected by LC-MS/MS, and analyzed by a DAS 2.0 software to calculate pharmacokinetic parameters according to blood drug concentration, providing parameters such as AUC (0-t), AUC(0-∞), MRT(0-t), MRT(0-∞), Cmax, Tmax, and t1/2, etc.

The target in data set [3] is Monoamine oxidase (MAO-B) (Homo sapiens, UniProt P27338). The following applies: monoamine oxidase inhibitor; stronger than Selegiline; cited from earlier work.
The mark [4] stands for this setting: pH 7.4, aqueous buffer, phosphate buffer with pH of 7.4, read-out: SOLUBILITY

In brackets after ≈: the same amount, converted by molar mass. Read-outs that look alike come from different tables or passages of the source.

Chain of Monoamine oxidase (MAO-B) (P27338 whole entry, species assumed): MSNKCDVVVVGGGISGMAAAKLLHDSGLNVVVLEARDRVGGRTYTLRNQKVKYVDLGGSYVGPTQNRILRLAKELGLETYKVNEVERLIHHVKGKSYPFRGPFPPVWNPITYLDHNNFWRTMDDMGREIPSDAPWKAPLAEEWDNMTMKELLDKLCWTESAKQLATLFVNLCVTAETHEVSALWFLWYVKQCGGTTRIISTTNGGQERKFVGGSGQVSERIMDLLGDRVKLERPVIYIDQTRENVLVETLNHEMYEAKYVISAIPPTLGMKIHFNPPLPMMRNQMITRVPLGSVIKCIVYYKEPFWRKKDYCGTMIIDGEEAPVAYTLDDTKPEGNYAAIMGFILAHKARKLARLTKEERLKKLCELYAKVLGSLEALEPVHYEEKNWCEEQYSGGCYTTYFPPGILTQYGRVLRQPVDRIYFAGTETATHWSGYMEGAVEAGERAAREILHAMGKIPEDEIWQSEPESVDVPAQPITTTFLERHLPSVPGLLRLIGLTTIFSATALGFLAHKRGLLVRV

What is called solubility is how much of the substance goes into solution per volume. The term melting point denotes the temperature of the solid-liquid transition. `C#CCN(C(=O)OCOC(=O)CCCCCCCCCCCCCCC)[C@@H]1CCc2ccccc21` [Example 1, methyl ((Rasagiline-N-formyl)oxy)-palmitate]: the melting point is less than 25 °C. The solubility in data set [1] (setting [4]) is less than 5 µg/mL. `C#CCN(C(=O)OCOC(=O)Cc1cccc2ccccc12)[C@@H]1CCc2ccccc21` [Example 2, methyl ((Rasagiline-N-formyl)oxy)-naphthalene acetate] registered a melting point of 66 to 70 °C. Besides, the solubility in data set [1] (setting [4]) was less than 5 µg/mL. For `C#CCN(C(=O)OCOC(=O)CCCCCCCCCCCCCCCCC)[C@@H]1CCc2ccccc21` [Example 3, methyl ((Rasagiline-N-formyl)oxy)-stearate], the melting point was less than 25 °C. Further, the solubility in data set [1] (setting [4]) is less than 5 µg/mL. Take `C#CCN(C(=O)OCOC(=O)C(C)(C)C)[C@@H]1CCc2ccccc21` [Example 4, methyl ((Rasagiline-N-formyl)oxy)-pivalate]: the melting point is less than 25 °C. Also, in data set [1] (setting [4]), the solubility is less than 5 µg/mL. For `C#CCN(C(=O)OCOC(=O)CCCCCCCCCCCCCCCCCCC)[C@@H]1CCc2ccccc21` [Example 5, methyl ((Rasagiline-N-formyl)oxy)-icosanoate], in that order: less than 25 °C and less than 5 µg/mL. In turn, `C#CCN(C(=O)OCOC(=O)CC[C@@H](C)C1CCC2C3C[C@H](O)[C@@H]4C[C@H](O)CC[C@]4(C)C3CC[C@@]21C)[C@@H]1CCc2ccccc21` (some centres unmarked) [Example 6, methyl ((Rasagiline-N-formyl)oxy)-hyodeoxycholate] showed a melting point of less than 50 °C. In addition, the solubility in data set [1] (pH 7.4, aqueous buffer) is less than 5 µg/mL.

In the case of `C#CCN(C(=O)OCOC(=O)CCCC[C@@H]1SC[C@@H]2NC(=O)N[C@@H]21)[C@@H]1CCc2ccccc21` [Example 7, methyl ((Rasagiline-N-formyl)oxy)-biotin methyl ester], the solubility in data set [1] (setting [4]) came out at 31.7 µg/mL (≈ 67.2 µM). As for `C#CCN(C(=O)OCOC(=O)/C=C/c1ccc(O)c(OC)c1)[C@@H]1CCc2ccccc21` [Example 8, methyl ((Rasagiline-N-formyl)oxy)-ferulate], the melting point is 130.4 to 133.8 °C. Moreover, in data set [1] (setting [4]), the solubility is less than 5 µg/mL. In the case of `C#CCN(C(=O)OCOC(=O)CC[C@@H](C)C1CCC2C3C(CC[C@@]21C)[C@@]1(C)CC[C@@H](O)C[C@H]1C[C@H]3O)[C@@H]1CCc2ccccc21` (some centres unmarked) [Example 9, methyl ((Rasagiline-N-formyl)oxy)-chenodeoxycholate], the melting point was less than 50 °C. The solubility in data set [1] (pH 7.4, aqueous buffer) is less than 5 µg/mL.

For the compound `C#CCN(C(=O)OCOC(=O)CC[C@@H](C)C1CCC2C3C(CC[C@@]21C)[C@@]1(C)CC[C@@H](O)C[C@H]1C[C@@H]3O)[C@@H]1CCc2ccccc21` (some centres unmarked) [Example 10, methyl ((Rasagiline-N-formyl)oxy)-ursodesoxycholate], the melting point was less than 50 °C. Further, the solubility in data set [1] (pH 7.4, aqueous buffer) is less than 5 µg/mL. Compound `C#CCN(C(=O)OCOC(=O)CC[C@@H](C)C1CCC2C3CC[C@@H]4C[C@H](O)CC[C@]4(C)C3C[C@H](O)[C@@]21C)[C@@H]1CCc2ccccc21` (some centres unmarked) [Example 11, methyl ((Rasagiline-N-formyl)oxy)-deoxycholate] yielded a melting point of less than 50 °C. Besides, the solubility in data set [1] (pH 7.4, aqueous buffer) is less than 5 µg/mL. On to `C#CCN(C(=O)OCOC(=O)CCCCCNC(=O)CCCCCCCCCCCCCCCCCCC)[C@@H]1CCc2ccccc21` [Example 12, methyl ((Rasagiline-N-formyl)oxy)-icosanamidohexanoate], for which the melting point was in the range of 77.2 to 80.8 °C. In data set [1] (setting [4]), the solubility is less than 5 µg/mL. In turn, `C#CCN(C(=O)OCOC(=O)CCCNC(=O)CCCCCCCCCCCCCCCCCCC)[C@@H]1CCc2ccccc21` [Example 13, methyl ((Rasagiline-N-formyl)oxy)-icosanamidobutanoate] had a melting point of 80 to 82 °C. In addition, the solubility in data set [1] (setting [4]) is less than 5 µg/mL. Moreover, the “release of the prodrug and conversion into Rasagiline (in words)” value in data set [2] is “steadier”.

For the compound `C#CCN(C(=O)OCOC(=O)CCCNC(=O)CCCCCCCCCCCCCCCCC)[C@@H]1CCc2ccccc21` [Example 14, methyl ((Rasagiline-N-formyl)oxy)-stearamidobutanoate], the melting point lay within 76 to 78 °C. The solubility in data set [1] (setting [4]) is less than 5 µg/mL. For `C#CCN(C(=O)OCOC(=O)CCCNC(=O)CCCCCCCCCCCCCCC)[C@@H]1CCc2ccccc21` [Example 15, methyl ((Rasagiline-N-formyl)oxy)-palmitamidobutanoate], the melting point was 73 to 75 °C. Moreover, in data set [1] (setting [4]), the solubility was less than 5 µg/mL. For `C#CCN(C(=O)OCOC(=O)CCCNC(=O)CCCCCCCCCCC)[C@@H]1CCc2ccccc21` [Example 16, methyl ((Rasagiline-N-formyl)oxy)4-dodecanamidobutanoate], in that order: 56.1 to 59.4 °C and less than 5 µg/mL.

`C#CCN(C(=O)OCOC(=O)CCCNC(=O)CCCCCCCCCCCCC)[C@@H]1CCc2ccccc21` [Example 17, methyl ((Rasagiline-N-formyl)oxy)4-tetradecanamidobutanorate] showed a melting point of 66.3 to 71.8 °C. Further, the solubility in data set [1] (setting [4]) is less than 5 µg/mL. Consider `C#CCN(C(=O)OCOC(=O)CCCNC(=O)CCCCCCCCCCCCCCCCCCCCC)[C@@H]1CCc2ccccc21` [Example 20, methyl ((Rasagiline-N-formyl)oxy)4-docosanamidobutanoate], for which the melting point fell in the range of 55.4 to 56.2 °C. Also, the solubility in data set [1] (setting [4]) is less than 5 µg/mL. For the same compound, the “release of the prodrug and conversion into Rasagiline (in words)” value in data set [2] is listed as “steadier”. On to `C#CCN(C(=O)OCOC(=O)CCCCNC(=O)CCCCCCCCCCCCCCC)[C@@H]1CCc2ccccc21` [Example 21, methyl ((Rasagiline-N-formyl)oxy)5-palmitamidopentanoate], for which the melting point was in the range of 58.3 to 58.9 °C. In addition, in data set [1] (setting [4]), the solubility is less than 5 µg/mL. `C#CCN(C(=O)OCOC(=O)CCCCNC(=O)CCCCCCCCCCCCCCCCC)[C@@H]1CCc2ccccc21` [Example 22, methyl ((Rasagiline-N-formyl)oxy)5-stearamidopentanoate] came in with a melting point of 75.3 to 77.1 °C. Further, in data set [1] (setting [4]), the solubility was less than 5 µg/mL. As to `C#CCN(C(=O)OCOC(=O)CCC(=O)NCCCCCCCCCCCCCCCCCC)[C@@H]1CCc2ccccc21` [Example 23, methyl ((Rasagiline-N-formyl)oxy)4-octadecylamidosuccinate], the solubility in data set [1] (setting [4]) is less than 5 µg/mL. For `C#CCN[C@@H]1CCc2ccccc21` [Rasagiline], the “inhibiting effect compared to Selegiline” value in data set [3] is 5-10 times. As to “methyl ((Rasagiline-N-formyl)oxy)4-stearamidohexanoate [Example 18]”, the solubility in data set [1] (pH 7.4) is less than 5 µg/mL.
